In ChEMBL document CHEMBL1148110, “New lanostanoids from the fungus Ganoderma concinna” (J Nat Prod, 2002):
Activity calls are given as the source filed them. No cut-off for these calls is given here.

Key:
HL-60 [1] = test: Induction of apoptosis in human HL60 cells assessed as intranucleosomal hydrolysis of chromatin at 30 uM after 24 hrs by agarose gel electrophoresis; type: functional, cell-based
HL-60 [2] = test: Induction of apoptosis in human HL60 cells assessed as chromatin condensation and fragmentation at 30 uM after 24 hrs by quantitative fluorescent microscopy
HL-60 [3] = test: Cytotoxicity against human HL60 cells after 24 hrs by MTT assay; type: functional, cell-based; conditions: HL-60, 24 h
HL-60 [4] = test: Induction of apoptosis in human HL60 cells assessed as morphological changes at 30 uM after 24 hrs by Hoechst 33258 staining; type: functional, cell-based

SMILES | Activity (HL-60 [1]) | Activity (HL-60 [2]) [%] | IC50 (HL-60 [3]) [µM] | Activity (HL-60 [4])
C/C(C=O)=C/CC[C@@H](C)[C@H]1CC[C@@]2(C)C3=CC[C@H]4C(C)(C)[C@@H](O)CC[C@]4(C)C3=CC[C@]12C | Active | 15 |  | 
C/C(=C/CC[C@@H](C)[C@H]1C[C@H](O)[C@@]2(C)C3=CC[C@H]4C(C)(C)C(=O)CC[C@]4(C)C3=CC[C@]12C)CO | Active | 62 | 15.7 | Active
CC(=O)[C@H]1CC(=O)[C@@]2(C)[C@]34O[C@@]3(C(=O)C[C@]12C)[C@@]1(C)CCC(=O)C(C)(C)[C@@H]1CC4=O | Active | 12 |  | 
